Assay results: patent US12545745B2, “Method for treating a degenerative neurological disorders comprising administering ASM inhibitor” (KYUNGPOOK NATIONAL UNIVERSITY INDUSTRY-ACADEMIC COOPERATION …, priority 2013, dated 2026)
Counter-ions that a name gives are not always drawn.

Legend:
human fibroblast = test: Autophagy (LC3-I to LC3-II conversion) in human fibroblast treated with recombinant ASM, M6P or NH4Cl; assay type: cell-based
Method: Human fibroblast acquired from the Coriell Institute, and was cultured in DMEM medium containing 15% FBS at 37° C. and 5% of CO2. The cell lines were treated with recombinant ASM (1 μM to 10 μM), and then Western blotting and densitometric quantification were performed in the same manner as Example 2-1. The results are illustrated in FIG. 17 and FIG. 18.
In order to confirm how ASM affects autophagy, a test was conducted as follows. Human fibroblast was treated with ASM alone, or treated with ASM in the presence of mannose-6-phosphate (M6P; 10 mM) relating to the action of placing lysosomal enzyme protein in lysosome, and then the accumulation of autophagosome was confirmed using Western blotting and densitometric quantification. The results are illustrated in FIG. 19.
In order to confirm whether ASM increases the formation rate of autophagosome, or decreases the degradation rate of autophagosome, autophagic flux assay was performed. […] The results are illustrated in FIG. 20.
Also, when treating with NH4Cl or ASM after culturing fibroblast of human with Alzheimer's disease in a serum-free medium or complete medium, the conversion rate from LC3-I to LC3-II was measured using Western blotting. The results are illustrated in FIG. 21 and FIG. 22.

β-amyloid = β-amyloid deposition in brain tissue of APP/PS1 mice (thioflavin S, immunofluorescence, ELISA); assay type: in vivo, mouse; details: cerebral cortex and hippocampus, AMI for four months, FIG. 25
Method: First, the cerebral cortex and hippocampus tissue of each mouse prepared in Example 1-1 were isolated, and then a tissue fragment was obtained and this was dyed with thioflavin S according to a conventional known method. The results are illustrated in FIG. 3 (cerebral cortex) and FIG. 4 (hippocampus).
Also, immunofluorescence was performed according to a conventional known method using anti-20G10 (mouse, 1:1000) antibody against Aβ42, anti-G30 (rabbit, […]) antibody against Aβ40, anti-Iba-1 (rabbit, 1:500, Wako) antibody, anti-GFAP (rabbit, 1:500, DAKO) antibody and anti-active caspase3 (rabbit, 1:50, Chemicon) antibody. Tissue fragments were observed using a confocal laser scanning microscope equipped with Fluoview SV1000 imaging software (Olympus FV1000, Japan) or an Olympus BX51 microscope, and the percentage of the area of the dyed area with respect to the area of the entire tissue was quantified using Metamorph software (Molecular Devices).
Also, β-amyloid deposition was confirmed using commercially available ELISA kits (Biosource). More specifically, hemispheres of the brain of each mouse were homogenized in a buffer containing 0.02 M of guanidine. Thereafter, ELISA was performed for Aβ40 and Aβ42 according to the manufacturer's instructions.
After fixing the cerebral and hippocampal tissues of the mice, 0.5% thioflavin S (Sigma-Aldrich), anti-20G10 antibodies (mouse, 1:1000) against Aβ42, anti-G30 antibodies (rabbit, […]) against Aβ40, anti-GFAP antibodies (rabbit, 1:500, DAKO), or anti-Iba-1 antibodies (rabbit, 1:500, Wako) were co-cultured. The tissues were analyzed using a laser scanning confocal microscope equipped with Fluoview SV1000 imaging software (Olympus FV1000, Japan) or an Olympus BX51 microscope. Percentage of stained area to total tissue area was quantified and analyzed using Metamorph software (Molecular Devices).
After fixing the mouse brain and hippocampus, 0.5% thioflavin S (Sigma-Aldrich), anti-GFAP (rabbit, 1:500, DAKO), and anti-Iba-1 (rabbit, 1:500, WAKO) were co-cultured together. The regions were analyzed using a laser scanning confocal microscope equipped with Fluoview SV1000 imaging software (Olympus FV1000, Japan) or an Olympus BX51 microscope. Percentage of stained area to total tissue area was quantified and analyzed using Metamorph software (Molecular Devices).
Proteins were extracted from mouse brain and hippocampus, and the amounts of Abeta40 (KHB3481, Invitrogen) and Abeta42 (KHB3441, Invitrogen) were measured using ELISA.

ASM = target: T1, ASM (Mus musculus, UniProt Q04519); test: ASM activity / concentration level in serum (plasma) and brain tissue of APP/PS1 mice (UPLC); assay type: in vivo; details: APP/PS1 mice, AMI administered for four months, nine month old; FIG. 24
T1 construct: from tissue; host or cells: mouse serum/plasma and brain tissue (APP/PS1, RSD-stressed C57BL/6, FUS R521C mice)
T1 sequence (Q04519 45-627): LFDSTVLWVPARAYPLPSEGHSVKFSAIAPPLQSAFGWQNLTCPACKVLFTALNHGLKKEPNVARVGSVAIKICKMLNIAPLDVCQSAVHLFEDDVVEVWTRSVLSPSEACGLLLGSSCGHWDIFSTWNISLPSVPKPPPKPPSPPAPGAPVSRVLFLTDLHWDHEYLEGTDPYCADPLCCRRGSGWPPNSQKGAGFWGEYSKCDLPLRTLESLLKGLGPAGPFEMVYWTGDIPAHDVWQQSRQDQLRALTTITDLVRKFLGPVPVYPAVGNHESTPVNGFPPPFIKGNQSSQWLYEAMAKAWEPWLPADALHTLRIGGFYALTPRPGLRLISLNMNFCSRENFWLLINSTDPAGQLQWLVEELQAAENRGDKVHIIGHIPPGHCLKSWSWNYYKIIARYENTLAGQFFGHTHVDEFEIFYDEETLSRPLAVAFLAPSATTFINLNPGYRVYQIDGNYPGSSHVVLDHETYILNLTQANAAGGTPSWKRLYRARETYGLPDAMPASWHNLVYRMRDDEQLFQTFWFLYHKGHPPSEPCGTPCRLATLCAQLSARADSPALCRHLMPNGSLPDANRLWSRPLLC
Method: More specifically, 3 μl of plasma, brain tissue and fibroblast samples from each mouse were mixed with an ASM activity buffer, and stored at 37° C. The hydrolysis reaction was completed by adding 114 μl of ethanol to the mixed solution, and then the mixed solution was centrifuged. 30 μl of the supernatant was transferred into a glass vial, and then 5 μl was applied to the UPLC system. The ASM concentration level was quantified in comparison with a bodipy (aminoacetaldehyde) combined with sphingomyelin and ceramide. The sphingomyelin and ceramide levels were extracted and quantified according to a known method, by extracting lipid from the sample, resuspending the dried lipid extract in 25 μl of 0.2% Igepal CA-630 (Sigma-Aldrich), and quantifying the concentration level of each lipid using the UPLC system. […] The animal test conducted was approved by the Kyungpook National University Institutional Animal Care and Use Committee (IACUC). Transgenic mouse line overexpressing APPswe (hAPP695swe) and PS1 (presenilin-1M146V) based on C57BL/6 mice (Charles River, UK) were used as Alzheimer's animal models [hereinafter, APP mice: mice overexpressing APPswe, PS1 mice: overexpressing presenilin-1M146V; GlaxoSmithKline]. […] The concentration level of ASM was measured as follows. Specifically, 3μ ? of mouse serum, brain tissue and fibroblast samples were mixed with ASM activity buffer and stored at 37° C. 114 μ ? of ethanol was added to terminate the hydrolysis reaction, followed by centrifugation. […] The ASM concentration levels were quantified by comparison with sphingomyelin and Bodipy (aminoacetaldehyde) conjugated with ceramide. The extraction and quantification of the sphingomyelin and ceramide was carried out by extracting and drying the lipids from the sample according to a known conventional method, and resuspending the dried lipid extract to 25 μl of 0.2% Igepal CA-630 (Sigma-Aldrich), and the concentration levels of each lipid were quantitated using the UPLC system. […] The concentration level of ASM was measured as follows. […]

APP/PS1 mice = test: Morris water maze (MWM) test in APP/PS1 mice; assay type: in vivo, mouse; details: AMI for four months, vs control group, FIG. 26
Method: More specifically, wild type mice, APP/PS1/ASM^+/− mice, ASM^+/− mice and APP/PS1 mice were used. The mice were given four trials per day for 10 days to learn the task, and on day 11, the mice were given a probe trial in which the platform was removed. The escape latency during the test period and the time spent in the target platform on day 11 were measured. The results are illustrated in FIG. 7 and FIG. 8.
(§1) MWM (Morris water maze) experiments were performed in a conventional manner to identify potential effects on learning and memory. Briefly, for the MWM test, mouse were learned the task four times a day for 10 days, followed by the removal of the platform on the 11th day and subsequently a probe trial performed.
as §1, with “mice” for “mouse”

[1] = human fibroblast treated with ASM in the presence of M6P 10 mM, FIG. 19
[2] = human fibroblast, recombinant ASM 1 μM to 10 μM, FIG. 17, 18

In the case of `Cl.N` [NH4Cl, reference compound], the LC3-II level (human fibroblast; fibroblast of human with Alzheimer's disease, serum-free medium (autophagy induced), NH4Cl added, FIG. 21) is reported as “increased significantly”.

In the case of `CN(C)CCC=C1c2ccccc2CCc2ccccc21` [AMI, amitriptyline-hydrochloride, reference compound], the “deposition of β-amyloid” value (β-amyloid) is reported as “inhibited”, the “ASM in brain tissue” value (ASM) is reported as “decreased” and the ASM in serum (ASM) is reported as “decreased”. The “ability to remember (escape latency, MWM)” value (APP/PS1 mice) was “recovered by decrease in escape latency”.

In the case of `O=C[C@@H](O)[C@@H](O)[C@H](O)[C@H](O)COP(=O)(O)O` [M6P, mannose-6-phosphate, reference compound], the “accumulation of ASM-induced autophagosome” value (human fibroblast; [1]) is reported as “decreased” and the “conversion to LC3-II” value (human fibroblast; [1]) is reported as “decreased”.

B1: recombinant ASM: recombinant acid sphingomyelinase protein used to treat human fibroblast (protein)
chain: LALSDSRVLWAPAEAHPLSPQGHPARLHRIVPRLRDVFGWGNLTCPICKGLFTAINLGLKKEPNVARVGSVAIKLCNLLKIAPPAVCQSIVHLFEDDMVEVWRRSVLSPSEACGLLLGSTCGHWDIFSSWNISLPTVPKPPPKPPSPPAPGAPVSRILFLTDLHWDHDYLEGTDPDCADPLCCRRGSGLPPASRPGAGYWGEYSKCDLPLRTLESLLSGLGPAGPFDMVYWTGDIPAHDVWHQTRQDQLRALTTVTALVRKFLGPVPVYPAVGNHESTPVNSFPPPFIEGNHSSRWLYEAMAKAWEPWLPAEALRTLRIGGFYALSPYPGLRLISLNMNFCSRENFWLLINSTDPAGQLQWLVGELQAAEDRGDKVHIIGHIPPGHCLKSWSWNYYRIVARYENTLAAQFFGHTHVDEFEVFYDEETLSRPLAVAFLAPSATTYIGLNPGYRVYQIDGNYSGSSHVVLDHETYILNLTQANIPGAIPHWQLLYRARETYGLPNTLPTAWHNLVYRMRGDMQLFQTFWFLYHKGHPPSEPCGTPCRLATLCAQLSARADSPALCRHLMPDGSLPEAQSLWPRPLFC
In the case of B1, the “amount of LC3-II (autophagic flux assay)” value (human fibroblast; cells treated with ASM and NH4Cl, FIG. 20) is reported as “no significant change”, the “accumulation of LC3-II” value (human fibroblast; fibroblast of human with Alzheimer's disease, serum-free medium (autophagy induced), treated with ASM, FIG. 22) is reported as “increased significantly” and the “conversion from LC3-I to LC3-II” value (human fibroblast; [2]) is reported as “takes place depending on the concentration”. For the same molecule, the “expression of beclin-1” value (human fibroblast; [2]) was “no significant change”.
